Data taken from US6670391B2, “Benzopyran derivative and antiallergic agent” (Dainippon Ink and Chemicals, Inc., priority 2001, dated 2003).
Where two headings read alike, the source gives them in different places.

System: male Hartley guinea pigs actively sensitized with egg-white albumin
Assay: Antiallergic Test due to Antigen-Induced Immediate Type Airway Reaction and Delayed Type Airway Reaction
Format: in vivo
Settings: Cavia porcellus, po, 10 mg/kg orally once one hour before induction (prednisolone 10 mg/kg orally twice, 16 hours and 2 hours before)
Description: Using an ultrasonic nebulizer (NE-U12, manufactured by OMRON Corporation), male Hartley guinea pigs (aged six weeks) were actively sensitized by consecutive 8-day inhalation of a 1 wt % physiological saline of egg-white albumin for 10 minutes a day. After one week passed since the final sensitization, an asthmatic disease state was induced by inhalation of a 2 wt % physiological saline of egg-white albumin for 5 minutes in the same manner. To inhibit the synthesis of endogenous steroid, metyrapone (10 mg/kg) was intravenously administered at 24 hours and one hour before the induction. To inhibit anaphylactic shock, pyrilamine (10 mg/kg) was intraperitoneally administered 30 minutes before inducing the asthmatic reaction.
After inducing the asthmatic reaction, the airway resistance (specific airway resistance Raw) was measured for 1 minute before inducing the asthmatic reaction, and 1 minute, 2 hours, 4 hours, 5 hours, 6 hours, 7 hours, 8 hours, and 23-24 hours after inducing the asthmatic reaction, using an airway resistance measuring apparatus (Pulmos-I, manufactured by M.I.P.S.). An average value of the airway resistance was determined, and an airway resistance increase ratio with respect to the value of the airway resistance before the induction was calculated by the following Equation 1.
Each of the test substances (10 mg/kg) listed in Table 1 was suspended in an aqueous 0.5% methyl cellulose solution, and the suspension was orally administered once one hour before inducing the asthmatic reaction. A positive control substance (prednisolone) was orally administered twice at a dosage of 10 mg/kg 16 hours and 2 hours before inducing the asthmatic reaction. The test was carried out on 8 animals per group.
According to this test procedure, a two-phase increase in airway resistance was observed immediately after inducing the asthmatic reaction and after 4-8 hours passed since inducing the asthmatic reaction. In the present invention, the former increase in airway resistance is referred to as the immediate type asthmatic reaction, while the latter increase in airway resistance is referred to as the delayed type asthmatic reaction. With respect to the evaluation of the drug, for the immediate type asthmatic reaction, the inhibition percentage with respect to the asthmatic reaction inhibiting medium administration group (referring to the group wherein a test drug is not administered after inducing the asthmatic reaction, hereinafter merely referred to as the “medium administration group”) was determined by Equation 2 using the airway resistance increase ratio after one minute gas passed since the induction as an index.
For the delayed type asthmatic reaction, the inhibition percentage with respect to the medium administration group was determined by the following Equation 3 using the area under the curve (AUC4-8) of the airway resistance increase ratio up to 4-8 hours after inducing the asthmatic reaction as an index. As an example, the relationship between the airway resistance increase ratio up to 4-8 hours after inducing the asthmatic reaction of the delayed type asthmatic reaction and time in the medium administration group, the prednisolone administration group, and the compound (216) administration group is shown in FIG. 1. As used herein, the area under the curve showing the relationship between the airway resistance increase ratio and time is (AUC4-8)
Airway resistance increase ratio (%)=(airway resistance after inducing the asthmatic airway resistance−airway resistance before inducing the asthmatic reaction)/(airway resistance before inducing the asthmatic reaction)×100
Inhibition (%)=(1−airway resistance increase ratio after one minute has passed since inducing the asthmatic reaction of the test substance administration group/airway resistance increase ratio after one minute has passed since inducing the asthmatic reaction of the medium administration group)×100 […]

[1] = 1 min, airway resistance increase ratio one minute after induction vs medium administration group, read-out: Inhibition (%) against immediate type allergy
[2] = AUC4-8 of airway resistance increase ratio 4-8 hours after induction vs medium administration group, read-out: Inhibition (%) against delayed type allergy

Row | Structure (SMILES) | inhibition in vivo at 10 mg/kg [1] | inhibition in vivo at 10 mg/kg [2]
1 | CCCCOc1c(O)c2ccc(OCCO)cc2oc1=O [Compound (207), 3-butoxy-4-hydroxy-7-(2-hydroxyethoxy)-2H-1-benzopyran-2-one] | 8.5% | 71.7%
2 | CCCCCCOc1c(O)c2c(OCCO)cccc2oc1=O [Compound (8), 3-hexyloxy-4-hydroxy-5-(2-hydroxyethoxy)-2H-1-benzopyran-2-one] | 14.1% | 58.2%
3 | CCCCCCOc1c(O)c2cccc(OCC(=O)O)c2oc1=O [Compound (368), 3-hexyloxy-4-hydroxy-8-hydroxycarbonylmethoxy-2H-1-benzopyran-2-one] | 24.8% | 60%
4 | CCCCCCCCOc1c(O)c2ccc(OCC(=O)O)cc2oc1=O [Compound (273), 3-octyloxy-4-hydroxy-7-hydroxycarbonylmethoxy-2H-1-benzopyran-2-one] | 32.9% | 64.5%
5 | CCCCCCOc1c(O)c(=O)oc2cc([C@@H]3O[C@H](CO)[C@@H](O)[C@H](O)[C@H]3O)ccc12 [Comparative Compound (6), 3-hydroxy-4-hexyloxy-7-(β-D-glucopyranosyl)-2H-1-benzopyran-2-one, reference compound] | 5.9% | 24.1%
6 | CCCCCCOc1c(O)c2cc(OCCO)ccc2oc1=O [Compound (109), 3-hexyloxy-4-hydroxy-6-(2-hydroxyethoxy)-2H-1-benzopyran-2-one] | 14% | 66.8%
7 | CCCCCCOc1c(O)c2ccc(OCCO)cc2oc1=O [Compound (210), 3-hexyloxy-4-hydroxy-7-(2-hydroxyethoxy)-2H-1-benzopyran-2-one] | 14.2% | 71.4%
8 | CCCCCCOc1c(O)c2cccc(OCC(O)CO)c2oc1=O (centres unmarked) [Compound (349), 3-hexyloxy-4-hydroxy-8-(2,3-dihydroxypropyloxy)-2H-1-benzopyran-2-one] | 12.5% | 57.2%
9 | CCCCCCOc1c(O)c2c(OCCC(O)CO)cccc2oc1=O (centres unmarked) [Compound (53), 3-hexyloxy-4-hydroxy-5-(3,4-dihydroxybutoxy)-2H-1-benzopyran-2-one] | 19.3% | 59.8%
10 | CCCCCCOc1c(O)c2cc(OCC(O)CO)ccc2oc1=O (centres unmarked) [Compound (147), 3-hexyloxy-4-hydroxy-6-(2,3-dihydroxypropyloxy)-2H-1-benzopyran-2-one] | 19.1% | 59.5%
11 | CCCCCCCCOc1c(O)c2ccc(OCCO)cc2oc1=O [Compound (216), 3-octyloxy-4-hydroxy-7-(2-hydroxyethoxy)-2H-1-benzopyran-2-one] | 38.8% | 72.5%
12 | CCCCCCCCOc1c(O)c2cccc(OCCC(=O)O)c2oc1=O [Compound (390), 3-octyloxy-4-hydroxy-8-(2-hydroxycarbonylethoxy)-2H-1-benzopyran-2-one] | 29.7% | 61.1%
13 | CCCCCCC=COc1c(O)c2cc(OCCCCC(=O)O)ccc2oc1=O [Compound (202), 3-(1-octenyloxy)-4-hydroxy-6-(4-hydroxycarbonylbutoxy)-2H-1-benzopyran-2-one] | 19.9% | 57.8%
14 | C[C@]12C=CC(=O)C=C1CC[C@@H]1[C@@H]2[C@@H](O)C[C@@]2(C)[C@H]1CC[C@]2(O)C(=O)CO [Prednisolone, prednisolone, reference compound] | 29% | 51.4%
15 | CCCCCCOc1c(O)c2ccc(OCCC(=O)O)cc2oc1=O [Compound (288), 3-hexyloxy-4-hydroxy-7-(2-hydroxycarbonylethoxy)-2H-1-benzopyran-2-one] | 13.4% | 59.1%
16 | CCCCCCOc1c(O)c2cc(OCC(=O)O)ccc2oc1=O [Compound (166), 3-hexyloxy-4-hydroxy-6-hydroxycarbonylmethoxy-2H-1-benzopyran-2-one] | 23.5% | 64.1%
17 | CCCCCCOc1c(O)c2c(OCCCO)cccc2oc1=O [Compound (29), 3-hexyloxy-4-hydroxy-5-(3-hydroxypropyloxy)-2H-1-benzopyran-2-one] | 15.8% | 60.9%
18 | COc1ccc2c(O)c([C@@H]3O[C@H](CO)[C@@H](O)[C@H](O)[C@H]3O)c(=O)oc2c1 [Comparative Compound (4), 7-methoxy-4-hydroxy-3-(β-D-glucopyranosyl)-2H-1-benzopyran-2-one, reference compound] | 4.7% | 20.5%
19 | CCCCCCCCOc1c(O)c2c(OCCO)cccc2oc1=O [Compound (14), 3-octyloxy-4-hydroxy-5-(2-hydroxyethoxy)-2H-1-benzopyran-2-one] | 32.4% | 65.5%
20 | CCCCOc1ccc2c([C@@H]3O[C@H](CO)[C@@H](O)[C@H](O)[C@H]3O)c(O)c(=O)oc2c1 [Comparative Compound (5), 7-butoxy-3-hydroxy-4-(β-D-glucopyranosyl)-2H-1-benzopyran-2-one, reference compound] | 6.8% | 22.4%
21 | CCCCCCOc1c(O)c2cccc(OCCO)c2oc1=O [Compound (311), 3-hexyloxy-4-hydroxy-8-(2-hydroxyethoxy)-2H-1-benzopyran-2-one] | 11.9% | 55.4%
22 | CCCCCCOc1c(O)c2c(OCC(=O)O)cccc2oc1=O [Compound (65), 3-hexyloxy-4-hydroxy-5-hydroxycarbonylmethoxy-2H-1-benzopyran-2-one] | 21.5% | 60.2%
23 | CC(C)=CCC/C(C)=C/COc1c(O)c2c(OCC(=O)O)cccc2oc1=O [Compound (81), 3-geranyloxy-4-hydroxy-5-hydroxycarbonylmethoxy-2H-1-benzopyran-2-one] | 15.4% | 54.1%
24 | CCCCCCCCOc1c(O)c2cc(OCCO)ccc2oc1=O [Compound (115), 3-octyloxy-4-hydroxy-6-(2-hydroxyethoxy)-2H-1-benzopyran-2-one] | 31.8% | 61.7%
25 | CC(C)=CCC/C(C)=C/COc1c(O)c2ccc(OCCO)cc2oc1=O [Compound (226), 3-geranyloxy-4-hydroxy-7-(2-hydroxyethoxy)-2H-1-benzopyran-2-one] | 22.8% | 61.5%
26 | CCCCCCCCOc1c(O)c2ccc(OCC(O)CO)cc2oc1=O (centres unmarked) [Compound (249), 3-octyloxy-4-hydroxy-7-(2,3-dihydroxypropyloxy)-2H-1-benzopyran-2-one] | 28.8% | 63.4%
27 | CCCCCCOc1c(O)c2c(OCCCCC(=O)O)cccc2oc1=O [Compound (99), 3-hexyloxy-4-hydroxy-5-(4-hydroxycarbonylbutoxy)-2H-1-benzopyran-2-one] | 14.6% | 61.9%
28 | CCCCCCCCCCOc1ccc2c(O)c(OC)c(=O)oc2c1 [Comparative Compound (2), 3-methoxy-4-hydroxy-7-decyloxy-2H-1-benzopyran-2-one, reference compound] | 6.5% | 20.2%
